Reference: patent publication US20240199558A1, “2,4,6-TRISUBSTITUTED 1,3,5-TRIAZINES AS MODULATORS OF CX3CR1” (ASTRAZENECA AB, priority 2022, published 2024)

molecular target: T1, CX3CR1 (Homo sapiens (Human), UniProt P49238); test: hCX3CR1 [125I]-CX3CL1 displacement binding (SPA); settings: CHO-hCX3CR1 membranes, [125I]-CX3CL1, SPA beads
Experimental: hCX3CR1 [^125I]-CX3CL1 Displacement Binding (SPA)
CHO-hCX3CR1 membranes (3 μg per well) together with […] [^125I]-CX3CL1 (Perkin Elmer) and different concentrations of competitor compound were incubated together with 400 μg/well WGA coated PVT SPA beads (Perkin Elmer) in 50 mM HEPES (pH 7.4), 10 mM MgCl2, 1 mM EDTA and 0.1% Gelatin in a Greiner polystyrene flat-bottom 384-well plate. The plate was incubated for 20 h at room temperature before the radioactivity was measured using a MicroBeta Trilux reader (PerkinElmer). The DMSO concentration was held constant at 1%.

T1 sequence (P49238 whole entry): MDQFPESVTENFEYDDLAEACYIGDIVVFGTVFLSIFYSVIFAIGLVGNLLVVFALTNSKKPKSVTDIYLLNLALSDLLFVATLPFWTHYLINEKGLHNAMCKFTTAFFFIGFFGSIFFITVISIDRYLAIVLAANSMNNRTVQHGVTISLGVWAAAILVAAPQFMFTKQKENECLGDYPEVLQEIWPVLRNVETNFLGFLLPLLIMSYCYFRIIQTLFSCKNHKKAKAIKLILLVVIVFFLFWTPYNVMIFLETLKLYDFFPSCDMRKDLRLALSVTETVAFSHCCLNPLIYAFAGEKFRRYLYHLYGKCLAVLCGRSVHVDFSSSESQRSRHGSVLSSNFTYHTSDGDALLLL

Point of comparison: `CC(C)C[C@H](CO)Nc1nc(C[C@H](C)c2ccc(Cl)c(Cl)c2)nc(NS(C)(=O)=O)n1` (relative stereo) [Example 1, N-(4-((R*)-2-(3,4-Dichlorophenyl)propyl)-6-(((R)-1-hydroxy-4-methylpentan-2-yl)amino)-1,3,5-triazin-2-yl)methanesulfonamide], IC50 1.97 µM. Against it:
- COc1ncccc1[C@@H](C)Cc1nc(N[C@@H](CO)CC(C)C)nc(NS(C)(=O)=O)n1 (single isomer, unassigned) [Example 18, N-(4-(((R)-1-Hydroxy-4-methylpentan-2-yl)amino)-6-((S*)-2-(2-methoxypyridin-3-yl)propyl)-1,3,5-triazin-2-yl)methanesulfonamide] — 8.5-fold higher, 16.7 µM
- CC(C)C[C@H](CO)Nc1nc(C[C@H](C)c2ccc(F)cc2F)nc(NS(C)(=O)=O)n1 (single isomer, unassigned) [Example 5, N-(4-((S*)-2-(2,4-Difluorophenyl)propyl)-6-(((R)-1-hydroxy-4-methylpentan-2-yl)amino)-1,3,5-triazin-2-yl)methanesulfonamide] — 2.2-fold lower, 0.895 µM
- CC(C)C[C@H](CO)Nc1nc(C[C@H](C)c2ccccc2)nc(NS(C)(=O)=O)n1 (single isomer, unassigned) [Example 147, N-(4-(((R)-1-Hydroxy-4-methylpentan-2-yl)amino)-6-((S*)-2-phenylpropyl)-1,3,5-triazin-2-yl)methanesulfonamide] — higher, > 10 µM
- CC(C)C[C@H](CO)Nc1nc(C[C@H](C)c2cnc(C3CC3)nc2)nc(NS(C)(=O)=O)n1 (single isomer, unassigned) [Example 11, N-(4-((S*)-2-(2-Cyclopropylpyrimidin-5-yl)propyl)-6-(((R)-1-hydroxy-4-methylpentan-2-yl)amino)-1,3,5-triazin-2-yl)methanesulfonamide] — higher, > 30 µM
- COc1ccc([C@@H](C)Cc2nc(N[C@@H](CO)CC(C)C)nc(NS(C)(=O)=O)n2)c(OC)n1 (single isomer, unassigned) [Example 53, N-(4-((S*)-2-(2,6-Dimethoxypyridin-3-yl)propyl)-6-(((R)-1-hydroxy-4-methylpentan-2-yl)amino)-1,3,5-triazin-2-yl)methanesulfonamide] — 5.6-fold higher, 11 µM

molecular target: T1, CX3CR1; test: hCX3CR1 [3H]-AZD8797 competitive binding assay (filter); settings: CHO-hCX3CR1 membranes, 2 nM [3H]-AZD8797
Summary of the method: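 Filtration radioligand displacement assay: competitor titrations compete with 2 nM [3H]-AZD8797 for membranes from CHO cells expressing hCX3CR1 (9 μg/well). Incubation was 2 h at room temperature in HEPES pH 7.4 with MgCl2, CaCl2, 0.5% BSA and 1% DMSO. Filters were washed with ice-cold high-salt (500 mM NaCl) buffer, and retained radioactivity was scintillation-counted.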

Point of comparison: `CC(C)C[C@H](CO)Nc1nc(CC(C)c2ccc(N)c(F)c2)nc(NS(C)(=O)=O)n1` (stereo partly drawn) [Example 136, N-(4-(2-(4-Amino-3-fluorophenyl)propyl)-6-(((R)-1-hydroxy-4-methylpentan-2-yl)amino)-1,3,5-triazin-2-yl)methanesulfonamide], IC50 16 nM. Against it:
- COc1ncccc1[C@@H](C)Cc1nc(N[C@@H](CO)CC(C)C)nc(NS(C)(=O)=O)n1 (single isomer, unassigned) [Example 18, N-(4-(((R)-1-Hydroxy-4-methylpentan-2-yl)amino)-6-((S*)-2-(2-methoxypyridin-3-yl)propyl)-1,3,5-triazin-2-yl)methanesulfonamide] — 47-fold higher, 758 nM
- CC(C)C[C@H](CO)Nc1nc(C[C@H](C)c2ccc(F)cc2F)nc(NS(C)(=O)=O)n1 (single isomer, unassigned) [Example 5, N-(4-((S*)-2-(2,4-Difluorophenyl)propyl)-6-(((R)-1-hydroxy-4-methylpentan-2-yl)amino)-1,3,5-triazin-2-yl)methanesulfonamide] — 15-fold higher, 239 nM
- CC(C)C[C@H](CO)Nc1nc(C[C@H](C)c2cnc(C3CC3)nc2)nc(NS(C)(=O)=O)n1 (single isomer, unassigned) [Example 11, N-(4-((S*)-2-(2-Cyclopropylpyrimidin-5-yl)propyl)-6-(((R)-1-hydroxy-4-methylpentan-2-yl)amino)-1,3,5-triazin-2-yl)methanesulfonamide] — higher, > 10000 nM
- COc1ccc([C@@H](C)Cc2nc(N[C@@H](CO)CC(C)C)nc(NS(C)(=O)=O)n2)c(OC)n1 (single isomer, unassigned) [Example 53, N-(4-((S*)-2-(2,6-Dimethoxypyridin-3-yl)propyl)-6-(((R)-1-hydroxy-4-methylpentan-2-yl)amino)-1,3,5-triazin-2-yl)methanesulfonamide] — 33-fold higher, 528 nM
- CC(C)C[C@H](CO)Nc1nc(CC(C)c2ccc(N)cc2)nc(NS(C)(=O)=O)n1 (stereo partly drawn) [Example 112, N-(4-(2-(4-Aminophenyl)propyl)-6-(((R)-1-hydroxy-4-methylpentan-2-yl)amino)-1,3,5-triazin-2-yl)methanesulfonamide] — 1.8-fold higher, 29 nM
- CC(C)C[C@H](CO)Nc1nc(C[C@H](C)c2c(F)ccc(F)c2F)nc(NS(C)(=O)=O)n1 (single isomer, unassigned) [Example 41, N-(4-(((R)-1-Hydroxy-4-methylpentan-2-yl)amino)-6-((S*)-2-(2,3,6-trifluorophenyl)propyl)-1,3,5-triazin-2-yl)methanesulfonamide] — higher, > 10000 nM
- COc1ccc(C(C)Cc2nc(N[C@@H](CO)CC(C)C)nc(NS(C)(=O)=O)n2)c2cccnc12 (stereo partly drawn) [Example 97, N-(4-(((R)-1-Hydroxy-4-methylpentan-2-yl)amino)-6-(2-(8-methoxyquinolin-5-yl)propyl)-1,3,5-triazin-2-yl)methanesulfonamide] — 5.6-fold higher, 90 nM
- CC(C)C[C@H](CO)Nc1nc(CC(C)c2cccc(F)c2O)nc(NS(C)(=O)=O)n1 (stereo partly drawn) [Example 135, N-(4-(2-(3-Fluoro-2-hydroxyphenyl)propyl)-6-(((R)-1-hydroxy-4-methylpentan-2-yl)amino)-1,3,5-triazin-2-yl)methanesulfonamide] — 6.5-fold higher, 104 nM
- CC(C)C[C@H](CO)Nc1nc(CC(C)c2ccc(F)c(CO)c2)nc(NS(C)(=O)=O)n1 (stereo partly drawn) [Example 122, N-(4-(2-(4-Fluoro-3-(hydroxymethyl)phenyl)propyl)-6-(((R)-1-hydroxy-4-methylpentan-2-yl)amino)-1,3,5-triazin-2-yl)methanesulfonamide] — 7.5-fold higher, 120 nM
- CC(C)C[C@H](CO)Nc1nc(CC(C)c2ccc(C#N)c(Cl)c2)nc(NS(C)(=O)=O)n1 (stereo partly drawn) [Example 169, N-(4-(2-(3-Chloro-4-cyanophenyl)propyl)-6-(((R)-1-hydroxy-4-methylpentan-2-yl)amino)-1,3,5-triazin-2-yl)methanesulfonamide] — 51-fold higher, 815 nM
- CC(C)C[C@H](CO)Nc1nc(C[C@@H](C)c2c(F)ccc(F)c2F)nc(NS(C)(=O)=O)n1 (single isomer, unassigned) [Example 42, N-(4-(((R)-1-Hydroxy-4-methylpentan-2-yl)amino)-6-((R*)-2-(2,3,6-trifluorophenyl)propyl)-1,3,5-triazin-2-yl)methanesulfonamide] — 1.9-fold higher, 30 nM
- CC(C)C[C@H](CO)Nc1nc(CC(C)c2ccc3c(c2)CN(C)C(=O)C3)nc(NS(C)(=O)=O)n1 (stereo partly drawn) [Example 130, N-(4-(((R)-1-Hydroxy-4-methylpentan-2-yl)amino)-6-(2-(2-methyl-3-oxo-1,2,3,4-tetrahydroisoquinolin-7-yl)propyl)-1,3,5-triazin-2-yl)methanesulfonamide] — 4.9-fold higher, 79 nM
- CC(C)C[C@H](CO)Nc1nc(C[C@H](C)c2ccc(F)c(F)c2F)nc(NS(C)(=O)=O)n1 (relative stereo) [Example 87, N-(4-(((R)-1-Hydroxy-4-methylpentan-2-yl)amino)-6-((S*)-2-(2,3,4-trifluorophenyl)propyl)-1,3,5-triazin-2-yl)methanesulfonamide] — 12-fold higher, 186 nM
- Cc1ccc(C(C)Cc2nc(N[C@@H](CO)CC(C)C)nc(NS(C)(=O)=O)n2)cc1C (stereo partly drawn) [Example 70, N-(4-(2-(3,4-Dimethylphenyl)propyl)-6-(((R)-1-hydroxy-4-methylpentan-2-yl)amino)-1,3,5-triazin-2-yl)methanesulfonamide] — 19-fold higher, 298 nM
- CC(C)C[C@H](CO)Nc1nc(CC(C)c2ccc3c(c2)CC(=O)N(C)C3)nc(NS(C)(=O)=O)n1 (stereo partly drawn) [Example 128, N-(4-(((R)-1-Hydroxy-4-methylpentan-2-yl)amino)-6-(2-(2-methyl-3-oxo-1,2,3,4-tetrahydroisoquinolin-6-yl)propyl)-1,3,5-triazin-2-yl)methanesulfonamide] — 15-fold higher, 241 nM
- CC(C)C[C@H](CO)Nc1nc(CC(C)c2ccc(C3CCOCC3)cc2)nc(NS(C)(=O)=O)n1 (stereo partly drawn) [Example 102, N-(4-(((R)-1-Hydroxy-4-methylpentan-2-yl)amino)-6-(2-(4-(tetrahydro-2H-pyran-4-yl)phenyl)propyl)-1,3,5-triazin-2-yl)methanesulfonamide] — 5.5-fold higher, 88 nM
- CC(C)C[C@H](CO)Nc1nc(C[C@@H](C)c2c(F)cc(F)cc2F)nc(NS(C)(=O)=O)n1 (single isomer, unassigned) [Example 40, N-(4-(((R)-1-Hydroxy-4-methylpentan-2-yl)amino)-6-((R*)-2-(2,4,6-trifluorophenyl)propyl)-1,3,5-triazin-2-yl)methanesulfonamide] — 4.1-fold higher, 65 nM
- CC(C)C[C@H](CO)Nc1nc(CC(C)c2ccc(CN3CCOCC3)cc2)nc(NS(C)(=O)=O)n1 (stereo partly drawn) [Example 95, N-(4-(((R)-1-Hydroxy-4-methylpentan-2-yl)amino)-6-(2-(4-(morpholinomethyl)phenyl)propyl)-1,3,5-triazin-2-yl)methanesulfonamide] — 41-fold higher, 657 nM
- CC(C)C[C@H](CO)Nc1nc(CC(C)(C)c2ccccc2)nc(NS(C)(=O)=O)n1 [Example 152, (R)—N-(4-((1-Hydroxy-4-methylpentan-2-yl)amino)-6-(2-methyl-2-phenylpropyl)-1,3,5-triazin-2-yl)methanesulfonamide] — higher, > 8010 nM
- COc1ccc([C@@H](C)Cc2nc(N[C@@H](CO)CC(C)C)nc(NS(C)(=O)=O)n2)cc1F (single isomer, unassigned) [Example 20, N-(4-((S*)-2-(3-Fluoro-4-methoxyphenyl)propyl)-6-(((R)-1-hydroxy-4-methylpentan-2-yl)amino)-1,3,5-triazin-2-yl)methanesulfonamide] — 60-fold higher, 958 nM
- CC(C)C[C@H](CO)Nc1nc(C[C@@H](C)c2ccc(N)nc2)nc(NS(C)(=O)=O)n1 (single isomer, unassigned) [Example 51, N-(4-((R*)-2-(6-Aminopyridin-3-yl)propyl)-6-(((R)-1-hydroxy-4-methylpentan-2-yl)amino)-1,3,5-triazin-2-yl)methanesulfonamide] — 1.9-fold higher, 30 nM
- CC(C)C[C@H](CO)Nc1nc(C[C@@H](C)c2ccc(Cl)c(F)c2F)nc(NS(C)(=O)=O)n1 (single isomer, unassigned) [Example 34, N-(4-((R*)-2-(4-Chloro-2,3-difluorophenyl)propyl)-6-(((R)-1-hydroxy-4-methylpentan-2-yl)amino)-1,3,5-triazin-2-yl)methanesulfonamide] — 3.2-fold higher, 52 nM
- CCOc1ccc([C@@H](C)Cc2nc(N[C@@H](CO)CC(C)C)nc(NS(C)(=O)=O)n2)cn1 (single isomer, unassigned) [Example 28, N-(4-((S*)-2-(6-Ethoxypyridin-3-yl)propyl)-6-(((R)-1-hydroxy-4-methylpentan-2-yl)amino)-1,3,5-triazin-2-yl)methanesulfonamide] — 170-fold higher, 2780 nM
